# Results: PubChem BioAssay (NCI)
#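 Abbreviation: GI50, concentration required for 50% inhibition of growth. TGI: concentration producing complete growth inhibition.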
# What was measured:
# Experiment in all cases: NCI-60 cell line screen, 384-well format
# 786-0 renal = system: 786-0 renal
# A498 renal = system: A498 renal
# A549 NSCLC = system: A549 NSCLC
# BT-549 breast = system: BT-549 breast
# CAKI-1 renal = system: CAKI-1 renal
# CCRF-CEM leukemia = system: CCRF-CEM leukemia
# COLO 205 colon = system: COLO 205 colon
# DU-145 prostate = system: DU-145 prostate
# EKVX NSCLC = system: EKVX NSCLC
# HCC-2998 colon = system: HCC-2998 colon
# HCT-116 colon = system: HCT-116 colon
# HCT-15 colon = system: HCT-15 colon
# HL-60(TB) leukemia = system: HL-60(TB) leukemia
# HOP-62 NSCLC = system: HOP-62 NSCLC
# HOP-92 NSCLC = system: HOP-92 NSCLC
# HS 578T breast = system: HS 578T breast
# HT29 colon = system: HT29 colon
# IGROV1 ovarian = system: IGROV1 ovarian
# K-562 leukemia = system: K-562 leukemia
# KM12 colon = system: KM12 colon
# LOX IMVI melanoma = system: LOX IMVI melanoma
# M14 melanoma = system: M14 melanoma
# MALME-3M melanoma = system: MALME-3M melanoma
# MCF7 breast = system: MCF7 breast
# MDA-MB-231 breast = system: MDA-MB-231 breast
# MDA-MB-435 melanoma = system: MDA-MB-435 melanoma
# MDA-MB-468 breast = system: MDA-MB-468 breast
# MOLT-4 leukemia = system: MOLT-4 leukemia
# NCI-H226 lung = system: NCI-H226 lung
# NCI-H23 lung = system: NCI-H23 lung
# NCI-H322M lung = system: NCI-H322M lung
# NCI-H460 NSCLC = system: NCI-H460 NSCLC
# NCI-H522 lung = system: NCI-H522 lung
# NCI/ADR-RES ovarian = system: NCI/ADR-RES ovarian
# OVCAR-3 ovarian = system: OVCAR-3 ovarian
# OVCAR-4 ovarian = system: OVCAR-4 ovarian
# OVCAR-5 ovarian = system: OVCAR-5 ovarian
# PC-3 prostate = system: PC-3 prostate
# RPMI-8226 leukemia = system: RPMI-8226 leukemia
# RXF 393 renal = system: RXF 393 renal
# SF-268 CNS = system: SF-268 CNS
# SF-295 CNS = system: SF-295 CNS
# SF-539 CNS = system: SF-539 CNS
# SK-MEL-2 melanoma = system: SK-MEL-2 melanoma
# SK-MEL-28 melanoma = system: SK-MEL-28 melanoma
# SK-MEL-5 melanoma = system: SK-MEL-5 melanoma
# SK-OV-3 ovarian = system: SK-OV-3 ovarian
# SNB-19 CNS = system: SNB-19 CNS
# SNB-75 CNS = system: SNB-75 CNS
# SR leukemia = system: SR leukemia
# SW-620 colon = system: SW-620 colon
# T-47D breast = system: T-47D breast
# TK-10 renal = system: TK-10 renal
# U251 glioblastoma = system: U251 glioblastoma
# UACC-257 melanoma = system: UACC-257 melanoma
# UACC-62 melanoma = system: UACC-62 melanoma
# UO-31 renal = system: UO-31 renal
structure (smiles),measurement,setting,value
Cc1nc(N)sc1-c1ccnc(Nc2ccc(N3CCOCC3)cc2)n1,GI50,786-0 renal,1420 nM
same,TGI,786-0 renal,6740 nM
same,GI50,A498 renal,433 nM
same,TGI,A498 renal,3720 nM
same,GI50,A549 NSCLC,440 nM
same,TGI,A549 NSCLC,7610 nM
same,GI50,BT-549 breast,190 nM
same,TGI,BT-549 breast,676 nM
same,GI50,CAKI-1 renal,381 nM
same,TGI,CAKI-1 renal,2050 nM
same,GI50,CCRF-CEM leukemia,127 nM
same,TGI,CCRF-CEM leukemia,1060 nM
same,GI50,COLO 205 colon,756 nM
same,TGI,COLO 205 colon,16200 nM
same,GI50,DU-145 prostate,709 nM
same,TGI,DU-145 prostate,75500 nM
same,GI50,EKVX NSCLC,1350 nM
same,TGI,EKVX NSCLC,5830 nM
same,GI50,HCC-2998 colon,3880 nM
same,TGI,HCC-2998 colon,42000 nM
same,GI50,HCT-116 colon,557 nM
same,TGI,HCT-116 colon,4160 nM
same,GI50,HCT-15 colon,328 nM
same,TGI,HCT-15 colon,15300 nM
same,GI50,HL-60(TB) leukemia,642 nM
same,TGI,HL-60(TB) leukemia,2400 nM
same,GI50,HOP-62 NSCLC,504 nM
same,TGI,HOP-62 NSCLC,4580 nM
same,GI50,HOP-92 NSCLC,433 nM
same,TGI,HOP-92 NSCLC,4490 nM
same,GI50,HS 578T breast,302 nM
same,TGI,HS 578T breast,1560 nM
same,GI50,HT29 colon,596 nM
same,TGI,HT29 colon,2140 nM
same,GI50,IGROV1 ovarian,305 nM
same,TGI,IGROV1 ovarian,2090 nM
same,GI50,K-562 leukemia,1150 nM
same,TGI,K-562 leukemia,> 100000 nM
same,GI50,KM12 colon,378 nM
same,TGI,KM12 colon,15300 nM
same,GI50,LOX IMVI melanoma,767 nM
same,TGI,LOX IMVI melanoma,2530 nM
same,GI50,M14 melanoma,2410 nM
same,TGI,M14 melanoma,28000 nM
same,GI50,MALME-3M melanoma,2700 nM
same,TGI,MALME-3M melanoma,> 100000 nM
same,GI50,MCF7 breast,1620 nM
same,TGI,MCF7 breast,23200 nM
same,GI50,MDA-MB-231 breast,371 nM
same,TGI,MDA-MB-231 breast,4950 nM
same,GI50,MDA-MB-435 melanoma,1740 nM
same,TGI,MDA-MB-435 melanoma,18700 nM
same,GI50,MDA-MB-468 breast,132 nM
same,TGI,MDA-MB-468 breast,330 nM
same,GI50,MOLT-4 leukemia,22.4 nM
same,TGI,MOLT-4 leukemia,115 nM
same,GI50,NCI-H226 lung,416 nM
same,TGI,NCI-H226 lung,2530 nM
same,GI50,NCI-H23 lung,1380 nM
same,TGI,NCI-H23 lung,7560 nM
same,GI50,NCI-H322M lung,1650 nM
same,TGI,NCI-H322M lung,26900 nM
same,GI50,NCI-H460 NSCLC,224 nM
same,TGI,NCI-H460 NSCLC,3130 nM
same,GI50,NCI-H522 lung,142 nM
same,TGI,NCI-H522 lung,3020 nM
same,GI50,NCI/ADR-RES ovarian,2650 nM
same,TGI,NCI/ADR-RES ovarian,> 100000 nM
same,GI50,OVCAR-3 ovarian,1070 nM
same,TGI,OVCAR-3 ovarian,23100 nM
same,GI50,OVCAR-4 ovarian,46000 nM
same,TGI,OVCAR-4 ovarian,> 100000 nM
same,GI50,OVCAR-5 ovarian,854 nM
same,TGI,OVCAR-5 ovarian,9330 nM
same,GI50,PC-3 prostate,463 nM
same,TGI,PC-3 prostate,8530 nM
same,GI50,RPMI-8226 leukemia,375 nM
same,TGI,RPMI-8226 leukemia,2120 nM
same,GI50,RXF 393 renal,922 nM
same,TGI,RXF 393 renal,2570 nM
same,GI50,SF-268 CNS,663 nM
same,TGI,SF-268 CNS,5730 nM
same,GI50,SF-295 CNS,627 nM
same,TGI,SF-295 CNS,5700 nM
same,GI50,SF-539 CNS,499 nM
same,TGI,SF-539 CNS,1900 nM
same,GI50,SK-MEL-2 melanoma,2190 nM
same,TGI,SK-MEL-2 melanoma,5560 nM
same,GI50,SK-MEL-28 melanoma,1380 nM
same,TGI,SK-MEL-28 melanoma,7040 nM
same,GI50,SK-MEL-5 melanoma,1600 nM
same,TGI,SK-MEL-5 melanoma,8430 nM
same,GI50,SK-OV-3 ovarian,411 nM
same,TGI,SK-OV-3 ovarian,4870 nM
same,GI50,SNB-19 CNS,4420 nM
same,TGI,SNB-19 CNS,> 100000 nM
same,GI50,SNB-75 CNS,653 nM
same,TGI,SNB-75 CNS,2410 nM
same,GI50,SR leukemia,32.9 nM
same,TGI,SR leukemia,121 nM
same,GI50,SW-620 colon,397 nM
same,TGI,SW-620 colon,2390 nM
same,GI50,T-47D breast,5420 nM
same,TGI,T-47D breast,68600 nM
same,GI50,TK-10 renal,376 nM
same,TGI,TK-10 renal,7480 nM
same,GI50,U251 glioblastoma,1540 nM
same,TGI,U251 glioblastoma,17900 nM
same,GI50,UACC-257 melanoma,3680 nM
same,TGI,UACC-257 melanoma,9900 nM
same,GI50,UACC-62 melanoma,482 nM
same,TGI,UACC-62 melanoma,3370 nM
same,GI50,UO-31 renal,619 nM
same,TGI,UO-31 renal,3090 nM
